From article PMC6853638, “TMC1 is an essential component of a leak channel that modulates tonotopy and excitability of auditory hair cells in mice” (eLife, 2019)
Numbering of substitutions follows the chain as printed. Values joined by “and” are separate entries in the source; they are usually repeats but may differ in a detail not shown here. Equal entries are not always repeated.

Experiments:
[1] = biological target: T1, cysteine-substituted TMC1 constructs (Mus musculus, UniProt Q8R4P5, D569C); assay: Background current before and after MTSET treatment in Tmc1-knockout OHCs expressing cysteine-substituted TMC1; format: cell-based; conditions: Tmc1-knockout OHCs expressing TMC1-D569C, individual cells
T1 construct: control full-length TMC1 (TMC1_WT); expressed in transfected cells; host or cells: Tmc1-knockout mouse OHCs, injectoporation
T1 sequence (Q8R4P5 1-757 D569C): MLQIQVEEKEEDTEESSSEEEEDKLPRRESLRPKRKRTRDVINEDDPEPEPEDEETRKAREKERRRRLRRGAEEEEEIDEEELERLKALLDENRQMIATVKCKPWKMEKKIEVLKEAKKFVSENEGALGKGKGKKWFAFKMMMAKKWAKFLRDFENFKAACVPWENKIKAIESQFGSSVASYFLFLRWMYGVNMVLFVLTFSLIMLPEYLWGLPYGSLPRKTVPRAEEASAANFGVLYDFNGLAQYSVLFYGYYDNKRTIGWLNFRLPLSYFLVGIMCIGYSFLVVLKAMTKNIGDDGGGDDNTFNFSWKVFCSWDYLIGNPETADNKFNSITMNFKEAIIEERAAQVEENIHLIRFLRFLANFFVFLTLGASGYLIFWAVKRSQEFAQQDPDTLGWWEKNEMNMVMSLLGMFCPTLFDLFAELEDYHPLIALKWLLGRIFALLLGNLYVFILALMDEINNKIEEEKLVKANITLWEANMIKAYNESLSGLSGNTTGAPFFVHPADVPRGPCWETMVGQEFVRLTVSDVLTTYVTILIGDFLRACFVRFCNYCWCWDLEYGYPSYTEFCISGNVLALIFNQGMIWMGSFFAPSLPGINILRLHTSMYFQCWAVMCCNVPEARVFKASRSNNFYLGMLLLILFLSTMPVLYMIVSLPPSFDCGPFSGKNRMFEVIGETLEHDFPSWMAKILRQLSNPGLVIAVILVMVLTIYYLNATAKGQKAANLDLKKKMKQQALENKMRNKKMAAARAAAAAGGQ
Experimental: (§1) Mouse Tmc1 and Tmc2 cDNAs were cloned into CMV-Script and pCDNA3.1- vectors, respectively. To obtain the Tmc1-deafness vector and amino-acid-substituted Tmc1 constructs, specific primers were designed and used for PCR (Supplementary File 1). […] In brief, the organ of Corti was isolated from P3 mice and cut into three pieces in Dulbecco’s modified Eagle’s medium/F12 with 1.5 μg/ml ampicillin. For electroporation, a glass pipette (2 μm tip diameter) was used to deliver cDNA plasmids (0.2 μg/μl in 1 × Hanks' balanced salt solution) to hair cells in the sensory epithelium. EGFP was used as an indicator for the selection of transfected hair cells. A series of three pulses at 60 V lasting 15 ms at 1 s intervals was applied to cochlear tissues by an electroporator (ECM Gemini X2, BTX, CA). The cochlear tissues were cultured for 1 day in vitro and then used for electrophysiological recording.
(§2) All experiments were performed at room temperature (20–25°C). Briefly, the basilar membrane with hair cells was acutely dissected from neonatal mice. […] The acutely isolated or cultured basilar membrane was used for electrophysiological recording within 1 h. […] Hair cells were recorded with a patch-clamp amplifier (EPC 10 USB and Patchmaster software, HEKA Elektronik, Lambrecht/Pfalz, Germany).
(§3) The sampling rate was 1 kHz for leak current recording, 50 kHz for the IV protocol and current-clamp recording, and 100 kHz for unitary channel recording. The voltage-clamp used a –70 mV holding potential, and the current-clamp was held at 0 pA. Only recordings with a current baseline <20 pA in NMDG solution were used for statistical analysis.

[2] = biological target: T2, cysteine-substituted TMC1 constructs (Mus musculus, UniProt Q8R4P5, N447C); assay: as above; format: cell-based; conditions: Tmc1-knockout OHCs expressing TMC1-N447C, individual cells
T2 construct: control full-length TMC1 (TMC1_WT); expressed in transfected cells; host or cells: Tmc1-knockout mouse OHCs, injectoporation
T2 sequence (Q8R4P5 1-757 N447C): T1 sequence (Q8R4P5 1-757 D569C) with N447C, C569D
Experimental: as §1, §2, §3

[3] = system: cysteine-substituted TMC1 constructs; assay: as above; format: cell-based, mouse; conditions: OHCs expressing any of the six cysteine-substituted TMC1 constructs
Experimental: as §1, §2, §3

[4] = biological target: T3, TMC1-M412C (Mus musculus, UniProt Q8R4P5, M412C); design: method as in Pan et al., 2018; conditions: MTSET treatment of M412C; ref Pan et al., 2018; cited from earlier work
T3 construct: control full-length TMC1 (TMC1_WT); expressed in transfected cells; host or cells: Tmc1;Tmc2 double-knockout mouse OHCs (P1 + 3 DIV), injectoporation
T3 sequence (Q8R4P5 whole entry M412C): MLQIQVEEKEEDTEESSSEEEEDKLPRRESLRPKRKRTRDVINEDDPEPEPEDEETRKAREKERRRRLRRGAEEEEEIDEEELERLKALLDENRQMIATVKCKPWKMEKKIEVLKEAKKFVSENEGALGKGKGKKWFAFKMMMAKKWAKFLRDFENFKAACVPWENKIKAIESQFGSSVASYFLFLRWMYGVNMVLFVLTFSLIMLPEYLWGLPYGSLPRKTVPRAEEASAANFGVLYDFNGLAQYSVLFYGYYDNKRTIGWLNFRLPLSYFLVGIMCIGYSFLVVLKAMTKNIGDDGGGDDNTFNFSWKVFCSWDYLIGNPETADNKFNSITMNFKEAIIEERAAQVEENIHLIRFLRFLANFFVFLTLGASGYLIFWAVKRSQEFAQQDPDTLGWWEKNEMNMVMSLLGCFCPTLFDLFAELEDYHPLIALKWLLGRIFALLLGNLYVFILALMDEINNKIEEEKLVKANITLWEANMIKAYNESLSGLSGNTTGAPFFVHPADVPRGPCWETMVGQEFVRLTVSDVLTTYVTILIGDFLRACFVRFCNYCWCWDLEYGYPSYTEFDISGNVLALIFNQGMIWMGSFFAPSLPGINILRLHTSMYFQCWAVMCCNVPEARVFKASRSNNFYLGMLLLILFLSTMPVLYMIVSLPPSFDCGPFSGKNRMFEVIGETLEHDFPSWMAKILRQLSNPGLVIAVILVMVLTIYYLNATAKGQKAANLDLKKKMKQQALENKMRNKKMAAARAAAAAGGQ
T3 sequence (Q4KL25 whole entry partner): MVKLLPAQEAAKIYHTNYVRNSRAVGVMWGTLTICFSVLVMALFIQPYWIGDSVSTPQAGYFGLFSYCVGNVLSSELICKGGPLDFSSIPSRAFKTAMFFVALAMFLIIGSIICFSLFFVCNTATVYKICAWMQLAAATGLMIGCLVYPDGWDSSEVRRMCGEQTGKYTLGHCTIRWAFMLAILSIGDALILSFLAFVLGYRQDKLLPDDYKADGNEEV
T3 sequence (Q8K467 29-153 partner): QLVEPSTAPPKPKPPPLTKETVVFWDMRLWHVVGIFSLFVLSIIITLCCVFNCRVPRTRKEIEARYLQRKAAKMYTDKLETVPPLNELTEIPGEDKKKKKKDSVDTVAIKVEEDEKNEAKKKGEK
T3 sequence (Q9Z309 whole entry partner): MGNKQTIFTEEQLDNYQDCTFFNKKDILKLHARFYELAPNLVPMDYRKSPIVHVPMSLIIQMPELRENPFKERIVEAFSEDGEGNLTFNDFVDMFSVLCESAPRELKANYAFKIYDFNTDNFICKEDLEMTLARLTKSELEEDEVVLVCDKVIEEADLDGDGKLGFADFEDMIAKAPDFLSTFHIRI

## C[N+](C)(C)CCSS(C)(=O)=O.[Br-] [MTSET, 2-(trimethylammonium)ethyl methanethiosulfonate, bromide]
[1]
  amplitude of the background current after MTSET treatment: -25.3123 and -14.3715 and -14.7309 and -35.792
[2]
  amplitude of the background current after MTSET treatment: -12.9811 and -13.0886 and -13.798 and -25.7685 and -27.4817 and -21.0828
[3]
  effect on the current baseline: did not, however, change the current baseline
[4]
  effect on the MET current: reduced the MET current
